Experimental data: US20090215884A1, “METHOD FOR WOUND HEALING” (priority 2005, published 2009)

Legend:
[1] = system: keratinocytes; test: Cytokine production by PEP005-treated human keratinocytes; type: cell-based; conditions: 6 h, supernatant
Procedure: (§1) Cytokine production by PEP005-treated human cells Confluent cultures of Me10538 cells, keratinocytes, fibroblasts and neutrophils were incubated for 6 h in the absence or presence of PEP005 (1-100 ng/ml). The supernatants were harvested and analyzed for the presence of the following cytokines; TNF-α, IL-6 and IL-8 using a multiplex detection kit (Biosource International, Nivelles, Belgium). Units of detected proteins are pg/ml.

[2] = system: dermal fibroblasts; test: MTT cell viability and proliferation, dermal fibroblasts; type: cell-based, human
Text: A normal adult skin biopsy (6 mm) was obtained (n=1), with informed consent, from an individual attending the Oral Surgery Clinic, School of Dentistry, Wales College of Medicine, Cardiff. Following the application of a local anaesthetic, the dermal biopsy was collected and adult dermal fibroblast cultures established by single cell suspension technique, following enzymic degradation of the specimen. This technique has previously been reliably used to establish viable primary cultures of both oral and dermal fibroblasts in vitro (Cook et al, 2000; Stephens et al, 2001; 2003). Dermal fibroblasts were cultured in Fibroblast-Serum Containing Medium, containing Dulbecco's Modified Eagle's Medium (DMEM), supplemented with L-glutamine (2 mM), antibiotics (100 U/ml penicillin G sodium, […] streptomycin sulphate and 0.25 μg/ml amphotericin B) and 10% fetal calf serum (all purchased from Invitrogen Ltd., Paisley, U.K.). Dermal fibroblast cultures were maintained at 37° C., in a 5% CO2/95% air atmosphere, with the culture medium being changed every 2-3 days. Dermal fibroblasts were used between passage 7-17, for all experiments.
Prior to use, the PEP005/DMSO stock solution was removed from 4° C. storage and warmed to room temperature. The required volumes of PEP005/DMSO were aliquoted into a poly-propylene vessel and the PEP005/DMSO diluted to the required concentration (typically 0.01 μg/ml, 0.1 μg/ml, 1 μg/ml, 10 μg/ml and […]) in Fibroblast-Serum Containing Medium (for dermal fibroblast cultures) or serum-free, EpiLife® Medium (for epidermal keratinocyte cultures), with fresh PEP005/culture medium solutions being prepared daily, at the various concentrations above, due to solution stability. Prior to discarding PEP005/culture medium solutions, at least two volumes of 0.1% sodium hydroxide (Sigma Chemical Co.), in 95% ethanol/5% methanol (both from Fisher Scientific, Leicestershire, U.K.), was added to each solution, to decontaminate.
The MTT [3-(4,5-dimethyl-2-thiazolyl)-2,5-diphenyltetrazolium bromide] dye-reduction assay was employed for the assessment of dermal fibroblast and epidermal keratinocyte cell viability and proliferation, according to Cook et al (2000). Following trypzinisation, dermal fibroblast or epidermal keratinocyte were seeded in 96-well microtitre plates (VWR International Ltd., Leicestershire, U.K.), at a cell density of 2.5×10^3 cell/well and 5×10^3 cell/well, respectively. Following cell seeding for 24 h and 48 h, respectively, the dermal fibroblast and epidermal keratinocyte culture medium were replaced with culture medium (100 μl/well), containing 0, 0.01 μg/ml, 0.1 μg/ml, 1 μg/ml, 10 μg/ml or 100 μg/ml PEP005 (six culture wells per PEP005 concentration). […]

[3] = system: Me10538 cells; test: Cytokine production by PEP005-treated human melanoma cells; type: cell-based; conditions: 6 h, supernatant
Procedure: as §1

How did the IL-8 ([1]; PEP005 1 ng/ml) turn out when `C/C=C(/C)C(=O)O[C@H]1C(C)=C[C@]23C(=O)[C@@H](C=C(CO)[C@@H](O)[C@]12O)[C@H]1[C@@H](C[C@H]3C)C1(C)C` [PEP005, ingenol-3-angelate] was run?
The IL-8 was 3910 ± 148 pg/mL.

And the TNFα ([1]; PEP005 1 ng/ml)?
Its TNFα is 510 ± 26 pg/mL.

What about the IL-8 ([1]; PEP005 5 ng/ml) of the same compound?
The IL-8 was 4775 ± 178 pg/mL.

And the TNFα ([1]; PEP005 5 ng/ml)?
The TNFα was 847 ± 37 pg/mL.

And the IL-8 ([1]; PEP005 10 ng/ml)?
Its IL-8 is 3895 ± 198 pg/mL.

And the TNFα ([1]; PEP005 10 ng/ml)?
The TNFα was 498 ± 29 pg/mL.

What about the IL-8 ([1]; PEP005 100 ng/ml) of the same compound?
Its IL-8 is 2950 ± 108 pg/mL.

And the TNFα ([1]; PEP005 100 ng/ml)?
Its TNFα is 335 ± 21 pg/mL.

And the “dermal fibroblast cell viability/proliferation (MTT)” value ([2]; 0.01 μg/ml PEP005, day 7)?
The value was “appeared to stimulate cell viability/proliferation”.

What about the “dermal fibroblast cell viability/proliferation (MTT)” value ([2]; 0.1 μg/ml PEP005, day 7) of the same compound?
Its value is “appeared to stimulate cell viability/proliferation”.

And the “dermal fibroblast cell viability/proliferation (MTT)” value ([2]; 10 μg/ml PEP005, days 1, 3 and 5)?
The value was “stimulatory effect”.

And the “dermal fibroblast cell viability/proliferation (MTT)” value ([2]; 100 μg/ml PEP005, compared to untreated fibroblast controls)?
The value was “cytotoxic effect”.

What about the IL-8 ([3]; PEP005 1 ng/ml) of the same compound?
The IL-8 was under 2 pg/mL.

What about the IL-8 ([3]; PEP005 5 ng/ml) of the same compound?
Its IL-8 is 210 ± 6 pg/mL.

What about the IL-8 ([3]; PEP005 10 ng/ml) of the same compound?
Its IL-8 is 737 ± 26 pg/mL.

What about the IL-8 ([3]; PEP005 100 ng/ml) of the same compound?
The IL-8 was 390 ± 18 pg/mL.
